Read-outs that look alike come from different tables or passages of the source.
Experiments:
[1] = molecular target: T1, B. subtilis DAPA aminotransferase (Bacillus subtilis, UniProt P53555); format: biochemical; settings: for DAPA aminotransferase specfic activity: compound added to extract of BI611; for function as amino donor with the B. subtilis enzyme / stimulation of DAPA aminotransferase activity: result in words; for stimulation of DAPA aminotransferase activity: dialyzed BI611 extract
T1 construct: A cell free extract prepared from a B. subtilis strain deleted for the bio operon but containing multiple copies (4-6) of the B. subtilis bioA gene; made in house; host or cells: B. subtilis BI611 (Δbio:cat, bpr:[P26bioA]4-6), cell-free extract (dialyzed for A1, crude for A2)
T1 sequence (P53555 1-448): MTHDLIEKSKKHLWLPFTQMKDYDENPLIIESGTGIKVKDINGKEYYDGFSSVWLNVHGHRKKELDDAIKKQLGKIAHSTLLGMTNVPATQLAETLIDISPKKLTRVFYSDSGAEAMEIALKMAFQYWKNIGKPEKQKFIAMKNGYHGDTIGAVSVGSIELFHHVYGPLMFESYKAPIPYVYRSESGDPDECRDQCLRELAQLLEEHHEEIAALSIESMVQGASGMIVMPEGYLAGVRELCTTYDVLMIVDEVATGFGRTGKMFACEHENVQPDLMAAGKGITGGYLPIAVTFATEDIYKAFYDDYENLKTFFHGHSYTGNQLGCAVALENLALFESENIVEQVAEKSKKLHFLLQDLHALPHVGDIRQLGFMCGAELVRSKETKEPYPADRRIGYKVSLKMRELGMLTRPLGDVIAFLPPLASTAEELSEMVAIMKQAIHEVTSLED
Description: The assay for DAPA aminotransferase is described by Eisenberg and Stoner in 1971 (J. Bacteriol. 108:1135-1140). In this assay, the substrate KAPA is incubated with S-adenosylmethionine (SAM) in the presence of the cofactor pyridoxal 5′-phosphate and cell extract. We measured the amount of DAPA produced in a plate bioassay utilizing an E. coli bioA strain. Streptavidin (8 μg/ml) was added to the assay mix because extracts of many of the strains to be assayed contained significant amounts of biotin and dethiobiotin which fed the E. coli indicator strain used in the bioassay. Contamination by trace amounts of biotin and dethiobiotin was also removed from the KAPA preparation used as substrate by passing the material over an avidin-agarose column. The E. coli bioA109 strain (MEC1) was used to measure DAPA aminotransferase activity in the bioassay. […] Eisenberg's DAPA-sensitive strain was obtained from the E. coli Genetic Stock Center at Yale University.
To determine whether B. subtilis DAPA aminotransferase activity could be stimulated by addition of other amino donors to the reaction mix, various amino donors were screened for their ability to stimulate enzyme activity in vitro. A cell free extract prepared from a B. subtilis strain deleted for the bio operon but containing multiple copies (4-6) of the B. subtilis bioA gene transcribed from a phage SP01-26 promoter with the cassette integrated at the bpr locus, BI611 (Δbio:cat, bpr:[P26bioA]4-6), was dialyzed to remove any endogenous levels of the amino donor and the extract was assayed in the presence of each of the standard amino acids and several other amine compounds. […] In a subsequent experiment, various lysine derivatives and analogs were tested for stimulation of activity (Table 2). […] The structure of (S)-2-aminoethyl-L-cysteine is identical to L-lysine except that the γ carbon has been replaced by a sulfur atom.

[2] = system: B. subtilis strains, PY79, BI282, and BI603; experiment: Sensitivity of B. subtilis strains to lysine analogs on minimal medium; format: cell-based; settings: minimal medium with no additive, with threonine, or with DAP plus threonine
Description: Three out of the four classical cases of lysine deregulated mutants were isolated by selecting for lysine analog resistance. B. subtilis strains, PY79 (Youngman et al., Plasmid 12:1-9, 1984), BI282, and BI603 were tested for sensitivity to four lysine analogs, on minimal medium with no additive, with threonine, or with DAP plus threonine. The purpose of the additives was to focus the selection on the lysC gene, that encodes the lysine sensitive aspartokinase II. […] All three strains behaved similarly; all were sensitive to AEC in all three media.

[3] = molecular target: T1, B. subtilis DAPA aminotransferase; experiment: DAPA aminotransferase assay of BI282 extract, dependence on SAM; format: biochemical
Description: (§1) The assay for DAPA aminotransferase is described by Eisenberg and Stoner in 1971 (J. Bacteriol. 108:1135-1140). In this assay, the substrate KAPA is incubated with S-adenosylmethionine (SAM) in the presence of the cofactor pyridoxal 5′-phosphate and cell extract. We measured the amount of DAPA produced in a plate bioassay utilizing an E. coli bioA strain. Streptavidin (8 μg/ml) was added to the assay mix because extracts of many of the strains to be assayed contained significant amounts of biotin and dethiobiotin which fed the E. coli indicator strain used in the bioassay. Contamination by trace amounts of biotin and dethiobiotin was also removed from the KAPA preparation used as substrate by passing the material over an avidin-agarose column. The E. coli bioA109 strain (MEC1) was used to measure DAPA aminotransferase activity in the bioassay. This E.coli bioA strain, developed for the assay by Eisenberg, was reported to be many times more sensitive to DAPA than any other bioA mutant. Eisenberg's DAPA-sensitive strain was obtained from the E. coli Genetic Stock Center at Yale University.
A B. subtilis strain, BI282, engineered to overexpress B. subtilis BioA protein was assayed for DAPA aminotransferase activity: BI282 contains a P15 bio cassette amplified at the bio locus (described in Patent Application 0635572A2). […]

[4] = molecular target: T2, E. coli DAPA aminotransferase (Escherichia coli, UniProt P12995); experiment: DAPA aminotransferase assay of extracts of B. subtilis strains containing E. coli bioA; format: biochemical; settings: strains lacking native bioA, with E. coli bioA
T2 sequence (P12995 whole entry): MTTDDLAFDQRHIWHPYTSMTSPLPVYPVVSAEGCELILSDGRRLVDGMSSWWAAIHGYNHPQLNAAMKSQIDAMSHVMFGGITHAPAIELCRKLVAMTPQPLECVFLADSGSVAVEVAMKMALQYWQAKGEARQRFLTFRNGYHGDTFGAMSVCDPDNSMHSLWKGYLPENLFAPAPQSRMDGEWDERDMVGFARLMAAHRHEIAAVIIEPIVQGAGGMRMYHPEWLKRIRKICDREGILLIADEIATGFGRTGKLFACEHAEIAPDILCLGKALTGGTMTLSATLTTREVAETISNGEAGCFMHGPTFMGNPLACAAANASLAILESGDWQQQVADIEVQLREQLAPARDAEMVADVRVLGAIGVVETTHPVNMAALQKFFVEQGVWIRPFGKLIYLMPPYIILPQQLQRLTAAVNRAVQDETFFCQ
Description: as §1
(§2) The enzyme reaction was approximately linear with time for at least 60 minutes. […] Enzyme activity was destroyed by boiling the extract, or freezing and thawing, although freezing the extract in the presence of 10% DMSO appeared to stabilize the enzyme. […]

[5] = molecular target: T3, S. marcescens DAPA aminotransferase (Serratia marcescens, UniProt P36568); experiment: DAPA aminotransferase assay of extracts of B. subtilis strains containing S. marcescens bioA; format: biochemical; settings: strains lacking native bioA, with S. marcescens bioA
T3 construct: made in house; host or cells: B. subtilis strain lacking the native bioA gene, carrying S. marcescens bioA; cell extract
T3 sequence (P36568 whole entry): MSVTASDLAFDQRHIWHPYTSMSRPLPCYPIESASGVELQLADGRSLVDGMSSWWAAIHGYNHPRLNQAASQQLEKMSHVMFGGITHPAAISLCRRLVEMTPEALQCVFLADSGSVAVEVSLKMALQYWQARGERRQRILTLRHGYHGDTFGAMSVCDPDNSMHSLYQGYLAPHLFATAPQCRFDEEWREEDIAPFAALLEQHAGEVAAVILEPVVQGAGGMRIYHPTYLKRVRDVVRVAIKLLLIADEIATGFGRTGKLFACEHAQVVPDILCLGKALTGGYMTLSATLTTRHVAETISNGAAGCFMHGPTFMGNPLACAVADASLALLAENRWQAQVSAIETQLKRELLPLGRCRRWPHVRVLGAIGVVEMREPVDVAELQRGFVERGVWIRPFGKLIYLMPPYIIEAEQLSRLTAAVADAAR
Description: as §1, §2

[6] = molecular target: T2, E. coli DAPA aminotransferase; settings: cited from earlier work; for Km: Stoner and Eisenberg 1975
[7] = molecular target: T1, B. subtilis DAPA aminotransferase; experiment: Kinetic studies of B. subtilis DAPA aminotransferase (crude cell-free extract of BI611); format: biochemical; settings: for Km: crude cell-free extract of BI611
Description: as §1
The kinetic properties of B. subtilis DAPA aminotransferase were investigated using a crude cell-free extract prepared from BI611 (Δbio:cat, bpr:[P26bioA]4-6). […] The conversion of substrate to product was approximately 10 to 40% in 20 minutes. […] The pH optimum for the transamination reaction was determined to be pH 8.6. […] The […] enzyme was subject to inhibition by KAPA at levels above 20 μM. […] The enzyme became saturated for lysine at concentrations between 20 and 40 mM.
The substrate inhibition of B. subtilis DAPA aminotransferase by KAPA provides evidence for a double displacement or ping-pong reaction mechanism, as has been shown for E.coli DAPA aminotransferase (Stoner et al., J. Biol. Chem. 250:4037-4043, 1975). KAPA concentration was varied at four different fixed lysine concentrations, and initial velocity data was collected and plotted in a double reciprocal form. […]

## CC(=O)NCCCC[C@H](N)C(=O)O [Nε-acetyl-L-lysine]
[1]
  DAPA aminotransferase specfic activity: 0 nmol/min/mg

## CNCCCC[C@H](N)C(=O)O [Nε-methyl-L-lysine]
[1]
  DAPA aminotransferase specfic activity: 0 nmol/min/mg

## lys-gly
[1]
  DAPA aminotransferase specfic activity: 0 nmol/min/mg

## CC(=O)N[C@@H](CCCCN)C(=O)O [Nα-acetyl-L-lysine]
[1]
  DAPA aminotransferase specfic activity: 0 nmol/min/mg

## (S)-2-aminoethyl-L-cysteine
[1]
  DAPA aminotransferase specfic activity: 0.48 nmol/min/mg
  function as amino donor with the B. subtilis enzyme: function as amino donors
  stimulation of DAPA aminotransferase activity: stimulate activity
[2]
  inhibition of growth: inhibited growth

## NCCCC[C@@H](N)C(=O)O [D-lysine]
[1]
  DAPA aminotransferase specfic activity: 0.19 nmol/min/mg
  function as amino donor with the B. subtilis enzyme: function as amino donors

## gly-lys
[1]
  DAPA aminotransferase specfic activity: 0 nmol/min/mg

## C[S+](CC[C@H](N)C(=O)O)C[C@H]1O[C@@H](n2cnc3c(N)ncnc32)[C@H](O)[C@@H]1O (stereo partly shown) [SAM, S-adenosylmethionine]
[1]
  function as amino donor with the B. subtilis enzyme: not a significant amino donor
[3]
  dependence of enzyme activity on presence of SAM: not dependent on the presence of SAM
[4]
  dependence of enzyme activity on presence of SAM: dependent on the presence of exogenous SAM
[5]
  dependence of enzyme activity on presence of SAM: dependent on the presence of exogenous SAM
[6]; purified E. coli enzyme, read-out: Km for SAM
  Km: 200 µM

## CC(N)C(=O)CCCCCC(=O)O (stereo not shown) [KAPA, 8-amino-7-ketopelargonic acid]
[7]; read-out: apparent Km for KAPA
  Km: 1 to 5 µM
[7]; lysine constant at 19 mM
  KAPA concentration above which inhibition of activity was observed: above 80 μM
[6]; Eisenberg and Stoner 1971
  KAPA level above which enzyme was subject to inhibition: above 20 μM
[6]; read-out: Km for KAPA
  Km: 1.2 µM

## NCCCCC(N)C(=O)O (racemic) [DL-lysine (>98%), DL-lysine]
[1]
  DAPA aminotransferase specfic activity: 0.35 nmol/min/mg

## NCCCC[C@H](N)C(=O)O [L-lysine]
[1]; listed as L-lysine (>98%)
  DAPA aminotransferase specfic activity: 0.76 nmol/min/mg
[1]; listed as L-lysine (>99%)
  DAPA aminotransferase specfic activity: 0.56 nmol/min/mg
[1]
  function as amino donor with the B. subtilis enzyme: function as amino donors
[1]; listed as L-lysine hydrochloride
  stimulation of DAPA aminotransferase activity: stimulated DAPA aminotransferase activity
[1]; listed as L-lysine(>99% pure)
  stimulation of DAPA aminotransferase activity: stimulate activity
[7]; read-out: apparent Km for lysine
  Km: 2000 to 25000 µM

## N[C@H](CCC[C@H](N)C(=O)O)C(=O)O [diaminopimelic acid]
[1]
  DAPA aminotransferase specfic activity: 0 nmol/min/mg

Reference: patent publication US6737256B2, “Overcoming DAPA aminotransferase bottlenecks in biotin vitamers biosynthesis” (Roche Vitamins Inc., priority 1997, dated 2004)
